Values quoted from earlier work in patent US20260027339A1, “FLEXIBLE IMPLANTABLE DEPOTS FOR CONTROLLED DRUG RELEASE” (Foundry Therapeutics, Inc., priority 2023, published 2026).
Like-named read-outs stand apart in the source and are kept apart here.

What was measured:
[1] = at 25° C.
[2] = test system: rats

vapor pressure [1]	SMILES	LD50 ([2]; intravenous) [mg/kg]	LD50 ([2]; subcutaneous) [mg/kg]
12.53	OCc1ccccc1 [benzyl alcohol]		
0.03 Pa	O=C(OCc1ccccc1)c1ccccc1 [benzyl benzoate]		
	CCCCN1CCCCC1C(=O)Nc1c(C)cccc1C (stereo not drawn) [bupivacaine]	6	43
0.33 Pa	CC(=O)OCC(COC(C)=O)OC(C)=O [triacetin]		

SMILES	vapor pressure [1]	LD50 ([2]; intravenous) [mg/kg]	LD50 ([2]; subcutaneous) [mg/kg]
CCOC(=O)c1ccccc1C(=O)OCC [diethyl phthalate]	0.28 Pa		
